Data set [1] concerns trypsin. In words: Insulin digestion in immobilized enzyme reactor, buffer screening (Table 7). The format is biochemical, porcine. The following applies: IMER, 70°C, 60 s.
The test system of data set [2] is T1, porcine trypsin.
T1 construct: purchased
Nature of the data set: Insulin digestion by trypsin in solution, buffer screening (Table 9). The format is biochemical. The following applies: 37°C, 18 h.

Data set [3] is described as follows: Plasma digestion with buffer/additive combinations, aggregation. The following applies: 10% in 50mM TBS, 100mM CaCl2; 90 minutes. The format is physicochemical, beagle.
In data set [4] the test system is BSA. In words: Screen of additives for prevention of aggregation (Table 5). It is filed as physicochemical, bovine. Particulars: 12.5 mg/mL BSA, 70°C, four columns in printed order, heads missing.

Structures are written as SMILES. Where a name gives a salt, the structure may show the parent alone.

In the case of `NC=O` [Formamide], the Digested is given as 1424720 in data set [1] (5%); 745680 in data set [1] (10%); 375288 in data set [1] (15%); 200621 in data set [1] (20%); 1126069 in data set [2] (5%); 1509456 in data set [2] (10%). In addition, the Digested was 973971 in data set [2] (15%) and 470938 in data set [2] (20%). Also, the Peptide in data set [1] (5%) stood at 580956; in data set [1] (10%), 305599; in data set [1] (15%), 155245; in data set [1] (20%), 82549; in data set [2] (5%), 500704; in data set [2] (10%), 693291. Besides, the results for the Peptide in data set [2] (15%) and in data set [2] (20%) were 421130 and 194156, respectively. In addition, the Undigested turned out to be 3061491 in data set [1] (5%); 3827192 in data set [1] (10%); 4129486 in data set [1] (15%); 4430620 in data set [1] (20%); 3871868 in data set [2] (5%); 4196754 in data set [2] (10%). Besides, the Undigested in data set [2] (15%) turned out to be 4281392; in data set [2] (20%), 4620417. Further, the aggregation result in data set [3] was “significant aggregation”.
For `N=C(N)N` [Gdn HC1, guanidine hydrochloride], the Digested is listed as 723258 in data set [1] (0.5M); 423606 in data set [1] (1M); 136773 in data set [1] (2M); 40578 in data set [1] (4M); 9402 in data set [1] (6M); 216251 in data set [2] (0.5M). Further, the Digested in data set [2] (1M) was determined as 215746; in data set [2] (2M) it was 184318; in data set [2] (4M), 30954; in data set [2] (6M) it was 5871. Besides, the Peptide in data set [1] (0.5M) came out at 309390; in data set [1] (1M), 179523; in data set [1] (2M), 56700; in data set [1] (4M), 15000; in data set [1] (6M), 2447; in data set [2] (0.5M), 101735. The Peptide was found to be 94828 in data set [2] (1M), 67546 in data set [2] (2M), 11014 in data set [2] (4M) and 1647 in data set [2] (6M). Further, the Undigested in data set [1] (0.5M) was 4114993; in data set [1] (1M) it was 4328875; in data set [1] (2M), 4244827; in data set [1] (4M), 4562051; in data set [1] (6M), 4396495; in data set [2] (0.5M), 5487176. Besides, the Undigested was found to be 5229914 in data set [2] (1M), 5455780 in data set [2] (2M), 6195166 in data set [2] (4M) and 5301367 in data set [2] (6M). Further, in data set [4] (0.5M, listed as Guanidine HC1, hydrochloride), the aggregation result is “N and Ν”.
On to `CN(C)C=O` [DMF, dimet ylformamide], for which the aggregation result in data set [4] (20%) was “Y and Υ”.

The values above are taken from patent WO2015077660A1, “Enzyme reactor system enabling enhanced enzymatic digestion, analyte solubility and improved mass spectrometric compatibility” (priority 2013, dated 2014).
